Paper PMC8443589, “Modelling human liver fibrosis in the context of non-alcoholic steatohepatitis using a microphysiological system” (Communications Biology, 2021)

Legend:
[1] = test system: liver MPS NASH model (PHH, KC and HSC co-cultures); experiment: Cue study: pro-fibrotic biomarkers TIMP-1, pro-collagen 1, fibronectin (Fig 5c); type: cell-based, human; conditions: fat medium + cue
Description: Assessment of gene expression changes was supplemented by assessment of the secretome produced by NASH microtissues in the MPS after exposure to the various cues. Increased pro-inflammatory cytokine secretion is a defining characteristic in NASH patients, so we conducted a Luminex cytokine array covering 42 different biomarkers, cytokines and chemokines secreted into the culture media of the different microtissues at multiple time points. We consistently detected 27 out of the 42 biomarkers and observed that there was differential expression of cytokines and chemokines driven by the different cues applied to the micro-tissue (Fig. 5a, b). The LPS cue and the presence of higher NPC numbers were responsible for driving the largest increase in cytokine and chemokine release, with the largest increases in cytokines measured on day 14 (Fig. 5b). […] Similarly, to the cytokine production, these changes were not further enhanced by combining cues, as all the cue combinations containing TGFβ had the highest expression (Supp. Fig. 17c).
Fig. 5 Systems biology interrogation of liver MPS NASH model to determine physiologically relevant cues that promote soluble biomarker changes to mimic advanced NASH disease state. PHH, KC and HSC co-cultures were cultured in the MPS platform under a variety of conditions for 14 days to test number of NPCs, presence of fat, fructose, cholesterol, LPS and TGFβ for effects on the soluble biomarker profile of the liver MPS NASH model. Expression of biomarkers, cytokines and chemokines were compared, all concentrations were normalised by Z-transformation to allow comparison and shown relative to mean for each marker (white = not detected). a Cytokine expression compared with varying levels of NPCs; b for the high NPC group in the presence of additional cues; c Expression of pro-fibrotic biomarkers with varying NPC content and with additional varying cues in high NPC condition (additional data in Supp. Fig. 17). d Graphical summary of the changes that occur in the NASH model in the presence of Fat and Fat + TGFβ. All data were generated from a minimum of three independent replicate samples per condition.
The MPS LC12 plates consists of 12 individual bioreactors that contain pneumatically driven micro-pumps to recirculate cell culture medium through a collagen-coated scaffold. Cells were cultured using the protocol previously described[20],[21], but briefly, PHH were seeded at a density of 6 × 10^5 viable cells per well on the LC12 plates with each NPC population (KC and/or HSC) at a density of 6 × 10^4 viable cells per well. Each well contained a final volume of 1.6 mL of medium per well and maintained under a flow rate of 1.0 µL/s. Cells were seeded in Williams E medium containing primary hepatocyte thawing and plating supplements (Life Technologies, USA) and cultured initially under downward flow for 8 h before the flow was automatically reversed to upward flow for the next 16 h of culture. Microtissues were then cultured in either HEP-Lean or HEP-Fat medium, both media’s are proprietary to CN Bio Innovations Ltd. The HEP-Fat medium is a derivative of the HEP-LEAN medium and contains a mixture of saturated and unsaturated FFAs, as well as physiologically relevant quantities of insulin and sugars. Complete media changes were performed on all wells every 48–72 h. For certain experiments, the media was supplemented with additional additives from day 4 onwards: 1 ng/ml LPS (lipopolysaccharides from Escherichia coli O111:B4) (Sigma Aldrich, UK), 1 ng/ml recombinant TGF beta 1 protein (Abcam, UK); 500 µM Fructose (Sigma Aldrich, UK), 50 µg/ml Cholesterol (Sigma Aldrich, UK). […]

[2] = test system: liver MPS NASH model (PHH, KC and HSC co-cultures); experiment: Cue study: secreted cytokines and chemokines (Luminex) with varying NPC number and added cues (Fig 5a, 5b); type: cell-based, human; conditions: for EGF relative expression (z-transformation) / Eotaxin relative expression (z-transformation) / FGF-2 relative expression (z-transformation) / Fit-3L relative expression (z-transformation) / Fractalkine relative expression (z-transformation) / G-CSF relative expression (z-transformation) / GM-CSF relative expression (z-transformation) / GRO relative expression (z-transformation) / IFN-a2 relative expression (z-transformation) / IL-1RA relative expression (z-transformation) / IL-4 relative expression (z-transformation) / IL-6 relative expression (z-transformation) / IL-7 relative expression (z-transformation) / IL-8 relative expression (z-transformation) / IL-15 relative expression (z-transformation) / IP-10 relative expression (z-transformation) / MCP-1 relative expression (z-transformation) / MCP-3 relative expression (z-transformation) / MDC relative expression (z-transformation) / MIP-1a relative expression (z-transformation) / MIP-1b relative expression (z-transformation) / TNFa relative expression (z-transformation) / VEGF relative expression (z-transformation): Fat media + cue
Description: There is only limited understanding of the pathogenic drivers of NASH and their interaction, principally due to a lack of translational models that are amenable to detailed molecular analysis[2],[34]. Here, a systems biology ‘cue-signal-analysis’ paradigm[35],[36] was utilised to produce large factorial datasets to enable the identification of molecular pathways of importance. […] To create varying set ups of the NASH microtissues we created hepatocyte microtissues in the MPS with high numbers of NPC (60,000 KC and HSC—equivalent to 10% of microtissue population) and low numbers of NPCs (6000 KC and HSC—equivalent to 1% of microtissue), representing physiological and non-physiological cell ratios respectively. Next, we took these different microtissues and cultured them in media with or without FFA. Finally, we supplemented the media with lipopolysaccharide (LPS), TGFβ, fructose or cholesterol either as single ‘cues’, in pairs or all together (Fig. 4a). ‘Cues’ were selected for clinical association with NASH. LPS, is a pleiotropic inflammatory molecule, it is proposed to reach the liver via the hepatic portal vein after release from the gastrointestinal tract, contributing to disease progression[37],[38]. TGFβ has been extensively studied in relation to fibrosis due to its regulation of genes controlling collagen and matrix-modifying enzymes. Fructose is a key substrate for de-novo lipogenesis, a process that has been identified as a key event in lipid accumulation within NAFLD patients. Finally, cholesterol accumulation has also been linked to NASH disease aetiology.
Assessment of gene expression changes was supplemented by assessment of the secretome produced by NASH microtissues in the MPS after exposure to the various cues. Increased pro-inflammatory cytokine secretion is a defining characteristic in NASH patients, so we conducted a Luminex cytokine array covering 42 different biomarkers, cytokines and chemokines secreted into the culture media of the different microtissues at multiple time points. […]

## O=C(CO)[C@@H](O)[C@H](O)[C@H](O)CO [Fructose]
[1]; Day 6, high NPC
  Fibronectin (Fold change in cytokine production compared to control): 1.389
  Pro-collagen 1 (Fold change in cytokine production compared to control): 2.273
  TIMP-1 (Fold change in cytokine production compared to control): 1.299
[1]; Day 11, high NPC
  Fibronectin (Fold change in cytokine production compared to control): 0.7381
  Pro-collagen 1 (Fold change in cytokine production compared to control): 1.299
  TIMP-1 (Fold change in cytokine production compared to control): 0.1393
[1]; Day 14, high NPC
  Fibronectin (Fold change in cytokine production compared to control): 0.7006
  Pro-collagen 1 (Fold change in cytokine production compared to control): 0.7125
  TIMP-1 (Fold change in cytokine production compared to control): 0.2326
[2]; Day 6
  EGF relative expression (z-transformation): -1.038
  Eotaxin relative expression (z-transformation): -0.782
  FGF-2 relative expression (z-transformation): -1.187
  Fit-3L relative expression (z-transformation): -0.2857
  Fractalkine relative expression (z-transformation): -0.2691
  G-CSF relative expression (z-transformation): -0.36
  GM-CSF relative expression (z-transformation): -0.4175
  GRO relative expression (z-transformation): -0.4254
  IFN-a2 relative expression (z-transformation): 0.2777
  IL-1RA relative expression (z-transformation): 0.2038
  IL-4 relative expression (z-transformation): -1.323
  IL-6 relative expression (z-transformation): -0.4543
  IL-7 relative expression (z-transformation): -0.8373
  IL-8 relative expression (z-transformation): 0.2742
  IL-15 relative expression (z-transformation): -0.4814
  IP-10 relative expression (z-transformation): -0.2708
  MCP-1 relative expression (z-transformation): 0.3757
  MCP-3 relative expression (z-transformation): -0.2673
  MDC relative expression (z-transformation): 1.214
  MIP-1a relative expression (z-transformation): 0.03503
  MIP-1b relative expression (z-transformation): -0.1641
  TNFa relative expression (z-transformation): -0.2082
  VEGF relative expression (z-transformation): 1.537
[2]; Day 11
  EGF relative expression (z-transformation): -0.1015
  Eotaxin relative expression (z-transformation): 0.09562
  FGF-2 relative expression (z-transformation): -0.4563
  Fit-3L relative expression (z-transformation): 1.324
  Fractalkine relative expression (z-transformation): 0.9874
  G-CSF relative expression (z-transformation): -1.298
  GM-CSF relative expression (z-transformation): -0.6
  GRO relative expression (z-transformation): -0.3142
  IFN-a2 relative expression (z-transformation): 0.6908
  IL-1RA relative expression (z-transformation): 0.879
  IL-4 relative expression (z-transformation): -0.3331
  IL-6 relative expression (z-transformation): -0.2984
  IL-7 relative expression (z-transformation): -0.3548
  IL-8 relative expression (z-transformation): -0.6705
  IL-15 relative expression (z-transformation): 0.3314
  IP-10 relative expression (z-transformation): -0.257
  MCP-1 relative expression (z-transformation): 0.4252
  MCP-3 relative expression (z-transformation): -0.08763
  MDC relative expression (z-transformation): 0.03858
  MIP-1a relative expression (z-transformation): -0.4174
  MIP-1b relative expression (z-transformation): 0.1119
  TNFa relative expression (z-transformation): -0.3492
  VEGF relative expression (z-transformation): -0.07553
[2]; Day 14
  EGF relative expression (z-transformation): -0.09066
  Eotaxin relative expression (z-transformation): 1.581
  FGF-2 relative expression (z-transformation): 0.5869
  Fit-3L relative expression (z-transformation): 1.267
  Fractalkine relative expression (z-transformation): 0.9131
  G-CSF relative expression (z-transformation): 0.4426
  GM-CSF relative expression (z-transformation): -0.06657
  GRO relative expression (z-transformation): 0.04245
  IFN-a2 relative expression (z-transformation): 2.403
  IL-1RA relative expression (z-transformation): 1.114
  IL-4 relative expression (z-transformation): 0.7104
  IL-6 relative expression (z-transformation): 0.4182
  IL-7 relative expression (z-transformation): 1.313
  IL-8 relative expression (z-transformation): 0.7194
  IL-15 relative expression (z-transformation): 1.407
  IP-10 relative expression (z-transformation): 0.8479
  MCP-1 relative expression (z-transformation): 2.011
  MCP-3 relative expression (z-transformation): 1.298
  MDC relative expression (z-transformation): 0.1904
  MIP-1a relative expression (z-transformation): 0.03023
  MIP-1b relative expression (z-transformation): 0.8239
  TNFa relative expression (z-transformation): 0.4054
  VEGF relative expression (z-transformation): -1.095
[2]; day 15
  IP-10 production: biggest increase
